We go through 3 compounds from PMC3914206.

What all share (type): binding
What all share (settings): Compound Concentration 10 µM

For experiment [1], the target named is T1, panel of 442 kinases (Homo sapiens, UniProt Q16512).
T1 construct: purchased KINOMEscan
The source says: (§1) We assessed the selectivity of members of this scaffold using the KINOMEscan methodology across a near comprehensive panel of 442 kinases [[18,27]].

The target in experiment [2] is T2, panel of 442 kinases (Homo sapiens, UniProt Q99755).
T2 construct: purchased KINOMEscan
T2 sequence (Q99755 whole entry): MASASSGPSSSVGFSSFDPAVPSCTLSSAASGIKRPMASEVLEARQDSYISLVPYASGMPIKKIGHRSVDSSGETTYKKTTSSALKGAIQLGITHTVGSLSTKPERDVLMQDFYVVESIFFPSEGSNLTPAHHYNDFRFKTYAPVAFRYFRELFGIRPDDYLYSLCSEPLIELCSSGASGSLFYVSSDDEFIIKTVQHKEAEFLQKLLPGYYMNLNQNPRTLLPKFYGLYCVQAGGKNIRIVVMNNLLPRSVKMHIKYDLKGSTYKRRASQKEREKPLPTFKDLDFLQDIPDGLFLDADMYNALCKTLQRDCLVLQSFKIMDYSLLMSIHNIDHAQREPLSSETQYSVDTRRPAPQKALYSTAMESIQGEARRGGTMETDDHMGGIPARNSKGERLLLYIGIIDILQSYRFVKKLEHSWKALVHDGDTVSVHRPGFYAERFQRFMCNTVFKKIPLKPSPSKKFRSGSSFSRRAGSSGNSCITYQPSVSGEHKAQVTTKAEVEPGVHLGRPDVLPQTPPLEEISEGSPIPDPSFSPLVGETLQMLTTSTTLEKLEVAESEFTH
Excerpt: as §1

The target in experiment [3] is T3, panel of 442 kinases (Homo sapiens, UniProt P36896).
T3 construct: purchased KINOMEscan
T3 sequence (P36896 24-505): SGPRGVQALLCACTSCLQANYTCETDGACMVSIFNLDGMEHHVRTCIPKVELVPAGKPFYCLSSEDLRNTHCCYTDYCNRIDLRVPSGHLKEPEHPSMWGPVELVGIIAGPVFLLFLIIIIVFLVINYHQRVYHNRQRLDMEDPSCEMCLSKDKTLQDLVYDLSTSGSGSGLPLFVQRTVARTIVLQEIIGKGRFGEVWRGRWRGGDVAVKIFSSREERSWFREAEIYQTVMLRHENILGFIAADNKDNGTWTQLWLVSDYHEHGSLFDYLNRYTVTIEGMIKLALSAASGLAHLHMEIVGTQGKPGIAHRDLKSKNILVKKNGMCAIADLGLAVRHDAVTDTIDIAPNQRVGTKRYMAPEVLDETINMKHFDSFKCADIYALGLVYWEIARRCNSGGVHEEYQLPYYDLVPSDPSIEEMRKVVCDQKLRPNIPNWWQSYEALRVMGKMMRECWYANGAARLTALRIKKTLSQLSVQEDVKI
Excerpt: as §1

T1 sequence (Q16512 whole entry): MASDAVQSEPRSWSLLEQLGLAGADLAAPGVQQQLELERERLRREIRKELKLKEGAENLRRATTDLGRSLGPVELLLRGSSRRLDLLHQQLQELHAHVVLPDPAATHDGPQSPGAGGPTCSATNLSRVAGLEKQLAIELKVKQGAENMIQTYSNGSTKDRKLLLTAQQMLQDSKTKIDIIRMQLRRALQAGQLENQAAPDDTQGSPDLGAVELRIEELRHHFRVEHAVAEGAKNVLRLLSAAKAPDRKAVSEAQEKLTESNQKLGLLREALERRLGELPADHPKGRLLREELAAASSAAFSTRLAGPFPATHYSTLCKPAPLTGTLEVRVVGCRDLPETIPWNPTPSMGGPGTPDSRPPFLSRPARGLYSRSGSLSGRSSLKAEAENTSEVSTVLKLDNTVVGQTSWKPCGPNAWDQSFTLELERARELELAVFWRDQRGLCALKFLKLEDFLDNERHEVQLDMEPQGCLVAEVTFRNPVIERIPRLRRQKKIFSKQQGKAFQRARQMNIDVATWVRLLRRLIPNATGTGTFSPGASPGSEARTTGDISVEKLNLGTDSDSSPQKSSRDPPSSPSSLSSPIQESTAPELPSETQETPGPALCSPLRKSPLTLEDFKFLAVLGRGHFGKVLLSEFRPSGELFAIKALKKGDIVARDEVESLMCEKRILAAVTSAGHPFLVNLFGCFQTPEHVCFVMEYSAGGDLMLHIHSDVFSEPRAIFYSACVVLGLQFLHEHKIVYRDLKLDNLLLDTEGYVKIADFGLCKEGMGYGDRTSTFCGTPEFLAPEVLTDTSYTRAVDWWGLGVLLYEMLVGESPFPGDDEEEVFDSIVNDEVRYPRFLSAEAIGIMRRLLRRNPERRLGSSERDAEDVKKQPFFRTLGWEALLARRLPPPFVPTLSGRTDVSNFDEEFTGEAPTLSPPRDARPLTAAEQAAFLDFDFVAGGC

Regarding `COc1cc(C(=O)N2CCC(N3CCN(C)CC3)CC2)ccc1Nc1ncc2c(n1)N(C1CCCC1)c1ccccc1C(=O)N2C` [Compound 25, 11-cyclopentyl-2-((2-methoxy-4-(4-(4-methylpiperazin-1-yl)piperidine-1-carbonyl)phenyl)amino)-5-methyl-5H-benzo[e]pyrimido[5,4-b][1,4]diazepin-6(11H)-one], the “KINOMEscan: PKN1” value on panel of 442 kinases [1] came to 100. Further, at panel of 442 kinases [2], the “KINOMEscan: PIP5K1A” value is on record as 100. In addition, at panel of 442 kinases [3], the “KINOMEscan: ACVR1B” value was 97.

Take `COc1cc(C(=O)N2CCC(N3CCN(C)CC3)CC2)ccc1Nc1ncc2c(n1)N(C)c1ccccc1C(=O)N2C` [15 (LRRK2-IN-1)]: the “KINOMEscan: PKN1” value on panel of 442 kinases [1] was found to be 100. For the same compound, the “KINOMEscan: PIP5K1A” value on panel of 442 kinases [2] came to 90. Moreover, at panel of 442 kinases [3], the “KINOMEscan: ACVR1B” value is recorded as 100.

Regarding `CCOc1cc(C(=O)N2CCC(N3CCN(C)CC3)CC2)ccc1Nc1ncc2c(n1)N(C1CCCC1)c1ccccc1C(=O)N2C` [Compound 26], the “KINOMEscan: PKN1” value at panel of 442 kinases [1] stood at 100. For the same compound, the “KINOMEscan: PIP5K1A” value on panel of 442 kinases [2] is reported as 78. Also, the “KINOMEscan: ACVR1B” value at panel of 442 kinases [3] is on record as 100.
